Here are results for five compounds from US20060120975A1, “Oral care composition comprising a phenolic compound and antioxidant vitamins and vitamin derivatives” (Colgate-Palmolive Company, priority 2004, published 2006).

The subject of this assay is IL-1β stimulated PGE2 production. Put plainly: IL-1β stimulated PGE2 production cell culture assay, an inflammation model. Format: cell-based. The settings on record: vitamin or vitamin derivative added to triclosan. From the text: The present invention is in part derived from a finding that, upon addition of an antioxidant vitamin or vitamin derivative to an antibacterial phenolic compound having anti-inflammatory activity, in particular a halogenated diphenylether compound having such activity, the anti-inflammatory activity can be enhanced.

Take `O=C1O[C@H]([C@@H](O)CO)C(O)=C1O` [ascorbic acid]: the “enhancing the anti-inflammatory activity of triclosan” value is “especially effective”. Under vitamin E stands “less dramatic enhancement”. Under `CCCCCCCCCCCCCCCC(=O)OC[C@H](O)[C@H]1OC(=O)C(O)=C1O` [Ascorbyl palmitate, ascorbyl palmitate] stands “less dramatic enhancement”. Take `CC(=O)Oc1c(C)c(C)c2c(c1C)CCC(C)(CCC[C@H](C)CCC[C@H](C)CCCC(C)C)O2` (some centres unmarked) [vitamin E acetate]: the “enhancing the anti-inflammatory activity of triclosan” value is listed as “especially effective”. To `Cc1c(C)c2c(c(C)c1O)CCC(C)(C(=O)O)O2` (centres unmarked) [TROLOX®] belongs “especially effective”.
